A short description of assay [1]: Inhibitory concentration against Methionine aminopeptidase-1 (EcMetAP1). Details: species or system Escherichia coli.
The nature of assay [2]: Inhibitory concentration against Methionine aminopeptidase-1 (ScMetAP1). More on the design: species or system Saccharomyces cerevisiae.

For `O=C(CN1CCOCC1)Nc1cccnc1C(=O)Nc1nccs1`, the IC50 came to 59 nM in assay [1] and 510 nM in assay [2].

Take `O=C(CN1CCCCC1)Nc1cccnc1C(=O)Nc1nccs1`: the results for the IC50 in assay [1] and in assay [2] were 53 nM and 190 nM, respectively.

With `C=CC(=O)Nc1cccnc1C(=O)Nc1nccs1`, the IC50 in assay [1] was over 100000 nM; in assay [2] it was 620 nM.

Take `O=C(CN1CCCC1)Nc1cccnc1C(=O)Nc1nccs1`: the values for the IC50 in assay [1] and in assay [2] were 90 nM and 150 nM, respectively.

Consider `O=C(CC1CCCC1)Nc1cccnc1C(=O)Nc1nccs1`, for which the results for the IC50 in assay [1] and in assay [2] were 790 nM and 6720 nM, respectively.

With `CC1(C)OC1CC(=O)Nc1cccnc1C(=O)Nc1nccs1` (centres undefined), the IC50 amounted to 700 nM in assay [1] and 3370 nM in assay [2].

For the compound `O=C(CN(O)c1ccccc1)Nc1cccnc1C(=O)Nc1nccs1`, the IC50 in assay [1] stood at 57 nM; in assay [2] it was 230 nM.

Turning to `CC(C)(C)OC(=O)NCC(=O)Nc1cccnc1C(=O)Nc1nccs1`, the IC50 in assay [1] was determined as 49 nM; in assay [2], 380 nM.

For `C=CCCC(=O)Nc1cccnc1C(=O)Nc1nccs1`, the IC50 in assay [1] amounted to 510 nM; in assay [2], 12200 nM.

As to `O=C(O)CCC(=O)Nc1cccnc1C(=O)Nc1nccs1`, the IC50 in assay [1] turned out to be 140 nM; in assay [2], 2270 nM.

Regarding `O=C(Nc1cccnc1C(=O)Nc1nccs1)c1cccnc1`, the values for the IC50 in assay [1] and in assay [2] were 60 nM and 330 nM, respectively.

On to `CN(C)CC(=O)Nc1cccnc1C(=O)Nc1nccs1`, for which the IC50 in assay [1] came to 120 nM; in assay [2], 420 nM.

Turning to `CCOC(=O)C(=O)Nc1cccnc1C(=O)Nc1nccs1`, the results for the IC50 in assay [1] and in assay [2] were 50 nM and 770 nM, respectively.

`O=C(Nc1nccs1)c1ncccc1NC(=O)C1CCC1`: the IC50 in assay [1] and in assay [2] was over 100000 nM each time.

With `O=C(Nc1nccs1)c1ncccc1NC(=O)C1CCCC1`, the IC50 in assay [1] is 350 nM; in assay [2], 2580 nM.

Regarding `O=C(O)CC(=O)Nc1cccnc1C(=O)Nc1nccs1`, the IC50 is 140 nM in assay [1] and 1520 nM in assay [2].

Take `O=C(Nc1nccs1)c1ncccc1NC(=O)C1CC1`: the IC50 in assay [1] came out at 130 nM; in assay [2] it was 2560 nM.

Take `O=C(Nc1nccs1)c1ncccc1NC(=O)C1CC=CCC1` (centres undefined): the IC50 in assay [1] was 810 nM; in assay [2] it was 15100 nM.

As to `O=C(CC1=CCCC1)Nc1cccnc1C(=O)Nc1nccs1`, the figures for the IC50 in assay [1] and in assay [2] were 190 nM and 5070 nM, respectively.

For `CC(C)=CC(=O)Nc1cccnc1C(=O)Nc1nccs1`, the figures for the IC50 in assay [1] and in assay [2] were 220 nM and 770 nM, respectively.

For the compound `CC(C)=CCC(=O)Nc1cccnc1C(=O)Nc1nccs1`, the IC50 in assay [1] came to 240 nM; in assay [2], 140 nM.

Turning to `O=C(O)c1ccccc1C(=O)Nc1cccnc1C(=O)Nc1nccs1`, the IC50 stood at 330 nM in assay [1] and 2270 nM in assay [2].

On to `O=C(Nc1cccnc1C(=O)Nc1nccs1)C1=CCCCC1`, for which the results for the IC50 in assay [1] and in assay [2] were 970 nM and 21900 nM, respectively.

Consider `O=C(CC1=CCCCC1)Nc1cccnc1C(=O)Nc1nccs1`, for which the IC50 in assay [1] turned out to be 120 nM; in assay [2], 8910 nM.

With `O=C(O)C(=O)Nc1cccnc1C(=O)Nc1nccs1`, the IC50 in assay [1] was 620 nM; in assay [2], over 100000 nM.

Regarding `C/C=C/C(=O)Nc1cccnc1C(=O)Nc1nccs1`, the values for the IC50 in assay [1] and in assay [2] were over 100000 nM and 820 nM, respectively.

As for `CCOC(=O)CC(=O)Nc1cccnc1C(=O)Nc1nccs1`, the half-maximal inhibitory concentration (IC50) is 75 nM in assay [1] and 720 nM in assay [2].

As for `CC1(C)OC1CCC(=O)Nc1cccnc1C(=O)Nc1nccs1` (centres undefined), the IC50 in assay [1] worked out at 560 nM; in assay [2] it was 3300 nM.

As to `O=C(Nc1cccnc1C(=O)Nc1nccs1)C1=CCCC1`, the IC50 in assay [1] was determined as 360 nM; in assay [2], 5170 nM.

Consider `CCN(CC)CC(=O)Nc1cccnc1C(=O)Nc1nccs1`, for which the figures for the IC50 in assay [1] and in assay [2] were 49 nM and 230 nM, respectively.

In the case of `CC(C)(C)OC(=O)NCCC(=O)Nc1cccnc1C(=O)Nc1nccs1`, the figures for the IC50 in assay [1] and in assay [2] were 49 nM and 150 nM, respectively.

Regarding `NCC(=O)Nc1cccnc1C(=O)Nc1nccs1`, the figures for the IC50 in assay [1] and in assay [2] were 92 nM and 210 nM, respectively.

As to `NCCC(=O)Nc1cccnc1C(=O)Nc1nccs1`, the IC50 in assay [1] was determined as 74 nM; in assay [2], 130 nM.

Take `CC(C)=CCCC(=O)Nc1cccnc1C(=O)Nc1nccs1`: the IC50 in assay [1] turned out to be 610 nM; in assay [2], 310 nM.

`O=C(Nc1nccs1)c1ccccn1`: the values for the IC50 in assay [1] and in assay [2] were 5000 nM and 7000 nM, respectively.

For the compound `C=CCC(=O)Nc1cccnc1C(=O)Nc1nccs1`, the IC50 stood at 130 nM in assay [1] and 380 nM in assay [2].

With `C=C(C)CC(=O)Nc1cccnc1C(=O)Nc1nccs1`, the IC50 was 150 nM in assay [1] and 4670 nM in assay [2].

Values taken from ChEMBL document CHEMBL1144281, “Inhibitors of type I MetAPs containing pyridine-2-carboxylic acid thiazol-2-ylamide. Part 2: SAR studies on the pyridine ring 3-substituent” (Bioorg Med Chem Lett, 2005).
